Read-outs that look alike come from different tables or passages of the source.
Columns and labels:
[1] = test system: SW837 cells; test: SW837 CTG proliferation assay (CRC); assay type: cell-based; conditions: Homo sapiens
Method: SW837 CTG Proliferation Assay (CRC)
SW837 cells (ATCC #CCL-235) were grown in cell culture flasks (175 cm^2) using L-15 10% FCS, 1% L-Glu, 1×NEAA and 1×Na-Pyrovat. Cultures were incubated at 37° C. and 0% CO2 in a humidified atmosphere, with medium change or subcultivation 2-3 times a week. Materials used for the assay were CulturPlate-384, White Opaque 384-well Microplate, Sterile and Tissue Culture Treated (Perkin Elmer #6007680), Leibovitz L15 Medium and FBS # SH30071.03 (HyClone).
(§1) The proliferation assays started (day1) with seeding cells in flat bottom 384 well microtiter plates in 90 μL L-15 10% FCS, 1% L-Glu, 1×NEAA and 1× Na-Pyrovat at a density of 500 cells/well. Any other luminescence compatible plate format is possible. On day 2, 10 μL dilutions of the test compounds covering a concentration range between app. 0, 1 and 10.000 nM were added to the cells. Cells were incubated for 5 days in a humidified, CO2 controlled (no CO2) incubator at 37° C. On day 7 100 μL of Cell Titer Glow reagent (Cell titer Glo Luminescent Cat. No. G7571, Promega) were added to each well and incubated for additional 10 min at room temperature (with agitation). Luminescence was measured on a Wallac Victor using standard luminescence read out. IC50 values were calculated using standard Levenburg Marquard algorithms (GraphPad Prism).

[2] = test system: MiaPaCa-2 cells; test: MiaPaCa-2 CTG proliferation assay (pancreatic cancer); assay type: cell-based; conditions: Homo sapiens, MIA PaCa-2, 120 h, read-out: IC50 MiaPACA2
Method: MiaPaCa-2 CTG Proliferation Assay (Pancreatic Cancer)
MiaPaCa-2 cells (ATCC® CRM-CRL-1420™) were grown in cell culture flasks (175 cm^2) using DMEM medium supplemented with 10% fetal bovine serum. […] Materials used for the assay were CulturPlate-384, White Opaque 384-well microplate, Sterile and Tissue Culture Treated (Perkin Elmer #6007680), DMEM medium and FBS # SH30071.03 (HyClone).
as §1, with “μL DMEM medium supplemented with” for “μL L-15”, “10% FBS” for “10% FCS, 1% L-Glu, 1×NEAA and 1× Na-Pyrovat”, “humidified, incubator with 5%” for “humidified,”, “CO2” for “CO2 controlled (no CO2) incubator”, “100 μl” for “100 μL”

[3] = test system: NCI-H358 cells; test: NCI-H358 CTG proliferation assay (120 h) (NSCLC); assay type: cell-based; conditions: Homo sapiens, read-out: IC50 NCl-H358
Method: NCI-H358 CTG Proliferation Assay (120 h) (NSCLC)
NCI-H358 cells (ATCC No. CRL-5807) were dispensed into white bottom opaque 96 well plates (Perkin Elmer cat no. 5680) at a density of 2000 cells per well in 100 μL RPMI-1640 ATCC-Formulation (Gibco # A10491)+10% FCS. Cells were incubated overnight at 37° C. in a humidified tissue culture incubator at 5% CO2. Compounds (10 mM stock in DMSO) were added at logarithmic dose series using the HP Digital Dispenser D300 (Tecan), normalizing for added DMSO. For the TO time point measurement, untreated cells were analyzed at the time of compound addition. Plates were incubated for 120 hours, and cell viability was measured using CellTiter-Glo luminescent cell viability reagent (Promega product code G7570). Viability (stated as percent of control) is defined as relative luminescence units RLU of each well divided by the RLU of cells in DMSO controls. IC50 values were determined from viability measurements by non-linear regression using a four parameter model.

[4] = biological target: T1, KRAS G12C::SOS1 protein-protein interaction (Homo sapiens, UniProt P01116, C118S/C51S/C80L/G12C); test: KRAS::SOS1 AlphaScreen binding assay
T1 construct: His6 (N); host or cells: E. coli
Description: KRAS::SOS1 AlphaScreen Binding Assay
Reagents: • GST-tagged SOS1 (564_1049_GST_TEV_ECO) produced in-house • GST-TEV-SOS1 (564-1049) is purchased from Viva Biotech Ltd. • The expression construct of KRAS G12C (amino acids 1-169 of reference sequence P01116-2 (uniprot), with additional mutations: C51S, C80L, and C118S) containing a C-terminal avi-tag was obtained by gene synthesis (GeneArt, Thermo Fisher) in donor vector (pDONR-221) and transferred by recombinant cloning into pDEST17 vector bearing an N-terminal His6-tag. The protein was expressed in E. coli and the purified protein was biotinylated with the E. coli biotin ligase (BirA) before usage. • GDP (Sigma Cat No G7127) • AlphaLISA Glutathione Acceptor Beads (PerkinElmer, Cat No AL109) • AlphaScreen Streptavidin Donor Beads (PerkinElmer Cat No 6760002) • Assay plates: Proxiplate-384 PLUS, white (PerkinElmer, Cat No 6008289)
Assay Buffer: • 1×PBS • 0.1% BSA • 0.05% Tween 20
7.5 nM (final assay concentration) KRAS G12C, 10 μM (final assay concentration) GDP and 5 nM (final assay concentration) GST-SOS1 are mixed in assay buffer prior to use and kept at room temperature.
AlphaLISA Glutathione Acceptor Beads and AlphaScreen Streptavidin Donor Beads are mixed in assay buffer at a concentration of 10 μg/mL (final assay concentration) each prior to use and kept at room temperature.
Compounds are diluted to a final start concentration of 100 μM and are tested in duplicate. Assay-ready plates (ARPs) are generated using an Access Labcyte Workstation with a Labcyte Echo 550 or 555 accoustic dispenser. For compound a start concentration of 100 μM, 150 nL of compound solution is transferred per well in 11 concentrations in duplicate with serial 1:5 dilutions.
The assay is run using a fully automated robotic system in a darkened room below 100 Lux. 10 μL of KRAS::SOS1 GDP mix is added into columns 1-24 to the 150 nL of compound solution (final dilution in the assay 1:100, final DMSO concentration 1%).
After 30 minutes incubation time 5 μL of bead mix is added into columns 1-23. Plates are kept at room temperature in a darkened incubator. After further 60 minutes incubation, the signal is measured using a PerkinElmer Envision HTS Multilabel Reader using the AlphaScreen specifications from PerkinElmer. Each plate contains the following controls: • diluted DMSO+KRAS::SOS1 GDP mix+bead mix • diluted DMSO+KRAS::SOS1 GDP mix
IC50 values are calculated and analyzed using a 4 parametric logistic model.
Tables of example compounds disclosed herein contain IC50 values determined using the above assay.

[5] = test system: ERK phosphorylation in NCI-H358_Cas9_SOS2; test: ERK phosphorylation assay 2 (AlphaLISA SureFire Ultra p-ERK1/2), SOS2 knock-out; assay type: cell-based; conditions: Homo sapiens, NCI-H358; assay 2 (marked with *); read-out: IC50 H358 pERK
Description: (§2) ERK Phosphorylation Assay
(§3) Materials Used for the Assay;

[6] = biological target: Ba/F3 cells bearing a KRAS G12C mutation (Homo sapiens, UniProt P01116, G12C, cells depend on it); test: Ba/F3 cell model proliferation assay (AlamarBlue, 72 h); assay type: cell-based; conditions: Ba/F3 KRAS G12C cells, 72 h, 10% FCS, uncorrected; read-out: IC50 Ba/F3 KRASG12C
Method: Ba/F3 Cell Model Generation and Proliferation Assay
Plasmids containing KRASG12 mutants were obtained from GeneScript. To generate KRASG12-dependent Ba/F3 models, Ba/F3 cells were transduced with retroviruses containing vectors that harbor KRASG12 isoforms. Platinum-E cells (Cell Biolabs) were used for retrovirus packaging. Retrovirus was added to Ba/F3 cells. To ensure infection, 4 μg/mL polybrene was added and cells were spinfected. […] Cells with an infection efficiency of 10% to 20% were further cultivated and puromycin selection with 1 μg/mL was initiated. As a control, parental Ba/F3 cells were used to show selection status. Selection was considered successful when parental Ba/F3 cells cultures died. To evaluate the transforming potential of KRASG12 mutations, the growth medium was no longer supplemented with IL-3. Ba/F3 cells harboring the empty vector were used as a control. Approximately ten days before conducting the experiments, puromycin was left out.
All treatments were performed in technical duplicates. The assay is run using a fully automated robotic system. Treated cells were incubated for 72 h at 37° C. with 5% CO2. AlamarBlue™ (ThermoFisher), a viability stain, was added and fluorescence measured in the PerkinElmer Envision HTS Multilabel Reader.

[7] = test system: ERK phosphorylation in NCI-H358 (KRAS G12C mutation); test: ERK phosphorylation assay 1 (AlphaLISA SureFire Ultra p-ERK1/2); assay type: cell-based; conditions: Homo sapiens, assay 1 (not marked with *), read-out: IC50 H358 pERK
Description: as §2, §3

[8] = Plasma protein binding (equilibrium dialysis), mouse plasma; assay type: in vitro ADME; conditions: read-out: PPB mouse fu
Method: (§4) Plasma Protein Binding (PPB)
(§5) Binding of test compound to plasma was determined using equilibrium dialysis (ED) and quantitative mass spectrometry interfaced with liquid chromatography (LC-MS). In brief, ED was performed with dialysis devices consisting of two chambers separated by a semipermeable membrane with a molecular weight cut-off of 5-10 kg/mol. One chamber was filled with commercially sourced plasma (mouse and human plasma, respectively) or serum (10% FCS in PBS) containing 1-10 μmol/L test compound and the other chamber was filled with phosphate-buffer saline (PBS) with or without dextran. The dialysis chamber was incubated for 3-5 hours at 37° C. After incubation, protein was precipitated from aliquots of each chamber and the concentration of test compound in the supernatant of the plasma-containing compartment (cplasma) and of the buffer-containing compartment (Cbuffer) was determined by LC-MS. The fraction of unbound test compound (not bound to plasma) (fu) was calculated according to the following equation: […]

[9] = Plasma protein binding (equilibrium dialysis), serum 10% FCS in PBS; assay type: in vitro ADME; conditions: bovine, 10% FCS in PBS (serum), read-out: PPB 10% FCS fu
Method: as §4, §5

[10] = Plasma protein binding (equilibrium dialysis), human plasma; assay type: in vitro ADME; conditions: read-out: PPB human fu
Method: as §4, §5

[11] = SW837 CTG proliferation, read-out: IC50 SW837
[12] = MiaPaCa-2 CTG proliferation, 5 days

T1 sequence (P01116 1-169 isoform P01116-2 G12C/C51S/C80L/C118S): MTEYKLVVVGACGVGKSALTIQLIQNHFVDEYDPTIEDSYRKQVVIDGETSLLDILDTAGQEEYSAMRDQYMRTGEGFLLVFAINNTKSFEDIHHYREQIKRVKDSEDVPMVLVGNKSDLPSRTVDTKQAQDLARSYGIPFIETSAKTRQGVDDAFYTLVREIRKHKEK
Chain of Ba/F3 cells bearing a KRAS G12C mutation (P01116 whole entry G12C): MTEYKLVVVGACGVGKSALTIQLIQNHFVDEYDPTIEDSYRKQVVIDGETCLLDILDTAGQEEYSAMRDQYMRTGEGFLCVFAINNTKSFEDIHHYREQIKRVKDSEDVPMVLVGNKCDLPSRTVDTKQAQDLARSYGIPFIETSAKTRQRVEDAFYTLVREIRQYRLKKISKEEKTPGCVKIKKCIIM

IC50 [1, 11] [nM] | IC50 [2, 12] [nM] | IC50 [3] [nM] | IC50 ([4]; KRAS G12C::SOS1 AlphaScreen) [nM] | IC50 [5] [nM] | GI50 [6] [nM] | IC50 [7] [nM] | IC50 ([4]; KRAS G12C 7.5 nM, GST-SOS1 5 nM, GDP 10 μM) [nM] | fraction unbound [8] | IC50 ([1]; SW837, read-out: IC50 SW837) [nM] | fraction unbound [9] | IC50 [2] [nM] | fraction unbound [10] | Structure (SMILES)
1.3 | 23.8 | 3.13 | 3 | 1.6 | 1.5 | – | – | – | – | – | – | – | C=CC(=O)N1CCN(c2cc(O[C@@H](C)[C@@H]3CCCN3C)nc(-c3cc(C4(C)CCCc5sc(N)c(C#N)c54)no3)n2)CC1 (stereo partly shown) [Ic-1]
3.67 | 9.01 | 4.75 | 2 | 3.7 | 2.3 | – | – | – | – | – | – | – | C=CC(=O)N1CCN(c2cc(O[C@@H](C)[C@@H]3CCCN3C)nc(-c3cc([C@@]4(C)CCCc5sc(N)c(C#N)c54)no3)n2)[C@H](C)C1 [Ic-2]
– | – | – | – | – | – | 125 | 280 | – | – | – | – | – | C=CC(=O)N1CCN(c2cc(N3CCN(C)CC3)nc(-n3cc(C4(C)CCCc5sc(N)c(C#N)c54)cn3)c2)CC1 (stereo not shown) [Ie-1]
– | – | – | – | – | – | – | – | 0.094 | 17 | 0.774 | 49 | 0.027 | C=CC(=O)N1CCN(c2nc(=O)n(-c3c(C)ccnc3C(C)C)c3nc(-c4c(O)cccc4F)c(F)cc23)[C@@H](C)C1 [sotorasib, reference compound]
